Measurements reported in BindingDB's records for doi:10.7270/Q2JQ0ZF7 (Nmmlsc, 2009).
pEC50: −log10 of the molar value.

Molecular target: T1, GTPase KRas [1-37] (Homo sapiens, UniProt G3V5T7)
T1 construct: 1-37
Assay: Ras wild-type GTP-binding inhibitors, SAR follow-up, biochemical, oxadiazole analogs, multiplex bead flow cytometry (AID 2053)
Details: not given

T1 sequence (G3V5T7 whole entry): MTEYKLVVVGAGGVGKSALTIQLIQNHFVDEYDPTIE

| Structure (SMILES) | pEC50 |
| --- | --- |
| Cc1ccc(C)c(N2CCN(C(=O)CCc3nc(-c4ccccc4C)no3)CC2)c1 | < 4.52 |
| COc1ccc(-c2noc(CCC(=O)N3CCN(c4cccc(Cl)c4)CC3)n2)cc1 | < 4.52 |
| Cc1ccc(C)c(N2CCN(C(=O)CCc3nc(-c4ccccc4C(F)(F)F)no3)CC2)c1 | < 4.52 |
| COc1ccc(-c2noc(CCC(=O)N3CCN(c4ccccc4C)CC3)n2)cc1 | < 4.52 |
| COc1ccc(-c2ccc(CCC(=O)N3CCN(c4cc(C)ccc4C)CC3)s2)cc1 | < 4.52 |
| COc1ccc(-c2noc(CCC(=O)N3CCN(c4cccc(C)c4C)CC3)n2)cc1 [1-[4-(2,3-dimethylphenyl)-1-piperazinyl]-3-[3-(4-methoxyphenyl)-1,2,4-oxadiazol-5-yl]-1-propanone] | < 4.52 |
| Cc1ccc(-c2noc(CCC(=O)N3CCN(c4cc(C)ccc4C)CC3)n2)cc1 [1-[4-(2,5-dimethylphenyl)-1-piperazinyl]-3-[3-(4-methylphenyl)-1,2,4-oxadiazol-5-yl]-1-propanone] | < 4.52 |
| Cc1ccc(C)c(N2CCN(C(=O)CCc3nc(-c4ccc(C(F)(F)F)cc4)no3)CC2)c1 [1-[4-(2,5-dimethylphenyl)-1-piperazinyl]-3-[3-[4-(trifluoromethyl)phenyl]-1,2,4-oxadiazol-5-yl]-1-propanone] | < 4.52 |
| COc1ccc(-c2noc(CCCCC(=O)N3CCN(c4cc(C)ccc4C)CC3)n2)cc1 [1-[4-(2,5-dimethylphenyl)-1-piperazinyl]-5-[3-(4-methoxyphenyl)-1,2,4-oxadiazol-5-yl]-1-pentanone] | < 4.52 |
| COc1ccc(-c2noc(CC(=O)N3CCN(c4cc(C)ccc4C)CC3)n2)cc1 [1-[4-(2,5-dimethylphenyl)piperazin-1-yl]-2-[3-(4-methoxyphenyl)-1,2,4-oxadiazol-5-yl]ethanone] | < 4.52 |
| Cc1cccc(-c2noc(CCC(=O)N3CCN(c4cc(C)ccc4C)CC3)n2)c1 [1-[4-(2,5-dimethylphenyl)piperazin-1-yl]-3-[3-(3-methylphenyl)-1,2,4-oxadiazol-5-yl]propan-1-one] | < 4.52 |
| COc1ccc(-c2cc(CCC(=O)N3CCN(c4cc(C)ccc4C)CC3)on2)cc1 [1-[4-(2,5-dimethylphenyl)piperazin-1-yl]-3-[3-(4-methoxyphenyl)-1,2-oxazol-5-yl]propan-1-one] | < 4.52 |
| COc1ccc(-c2coc(CCC(=O)N3CCN(c4cc(C)ccc4C)CC3)n2)cc1 [1-[4-(2,5-dimethylphenyl)piperazin-1-yl]-3-[4-(4-methoxyphenyl)-1,3-oxazol-2-yl]propan-1-one] | < 4.52 |
| COc1ccc(-c2ccc(CCC(=O)N3CCN(c4cc(C)ccc4C)CC3)[nH]2)cc1 [1-[4-(2,5-dimethylphenyl)piperazin-1-yl]-3-[5-(4-methoxyphenyl)-1H-pyrrol-2-yl]propan-1-one] | < 4.52 |
| COc1ccc(-c2noc(CCC(=O)N3CCN(c4cccc(F)c4)CC3)n2)cc1 [1-[4-(3-fluorophenyl)piperazin-1-yl]-3-[3-(4-methoxyphenyl)-1,2,4-oxadiazol-5-yl]propan-1-one] | < 4.52 |
| COc1ccc(-c2noc(CCC(=O)N3CCN(c4ccc(Br)cc4)CC3)n2)cc1 [1-[4-(4-bromophenyl)piperazin-1-yl]-3-[3-(4-methoxyphenyl)-1,2,4-oxadiazol-5-yl]propan-1-one] | < 4.52 |
| COc1ccc(-c2noc(CCC(=O)N3CCN(c4cccc(C(F)(F)F)c4)CC3)n2)cc1 [1-{3-[3-(4-methoxyphenyl)-1,2,4-oxadiazol-5-yl]propanoyl}-4-[3-(trifluoromethyl)phenyl]piperazine] | < 4.52 |
| Cc1ccc(C)c(N2CCN(C(=O)CCc3nc(-c4ccccc4Cl)no3)CC2)c1 [3-[3-(2-chlorophenyl)-1,2,4-oxadiazol-5-yl]-1-[4-(2,5-dimethylphenyl)-1-piperazinyl]-1-propanone] | < 4.52 |
| COc1ccc(-c2noc(CCC(=O)N3CCN(c4ccccc4)CC3)n2)cc1 [3-[3-(4-methoxyphenyl)-1,2,4-oxadiazol-5-yl]-1-(4-phenylpiperazin-1-yl)propan-1-one] | < 4.52 |
| COc1ccc(-c2noc(CCC(=O)N3CCN(c4ccccc4OC)CC3)n2)cc1 [3-[3-(4-methoxyphenyl)-1,2,4-oxadiazol-5-yl]-1-[4-(2-methoxyphenyl)-1-piperazinyl]-1-propanone] | < 4.52 |
| COc1ccc(-c2noc(CCC(=O)N3CCN(c4ccc(OC)cc4)CC3)n2)cc1 [3-[3-(4-methoxyphenyl)-1,2,4-oxadiazol-5-yl]-1-[4-(4-methoxyphenyl)piperazin-1-yl]propan-1-one] | < 4.52 |
| COc1ccc(-c2noc(CCC(=O)N3CCN(c4ccc(C)cc4)CC3)n2)cc1 [3-[3-(4-methoxyphenyl)-1,2,4-oxadiazol-5-yl]-1-[4-(4-methylphenyl)piperazin-1-yl]propan-1-one] | < 4.52 |

| Structure (SMILES) | pEC50 |
| --- | --- |
| COc1ccc(-c2noc(CCC(=O)N3CCN(c4ccc(C(F)(F)F)cc4)CC3)n2)cc1 [3-[3-(4-methoxyphenyl)-1,2,4-oxadiazol-5-yl]-1-[4-[4-(trifluoromethyl)phenyl]piperazin-1-yl]propan-1-one] | < 4.52 |
| COc1ccc(-c2noc(CCC(=O)N3CCN(c4cccc(OC)c4)CC3)n2)cc1 [KUC103349N] | < 4.52 |
| COc1ccc(-c2noc(CCCC(=O)N3CCN(c4cc(C)ccc4C)CC3)n2)cc1 [KUC103353N] | < 4.52 |
| Cc1ccc(C)c(N2CCN(C(=O)CCc3nc(-c4ccc(F)cc4)no3)CC2)c1 [KUC103364N] | < 4.52 |
| Cc1ccc(C)c(N2CCN(C(=O)CCc3nc(-c4cccc(F)c4)no3)CC2)c1 [KUC103366N] | < 4.52 |
| Cc1ccc(C)c(N2CCN(C(=O)CCc3nc(-c4cccc(Br)c4)no3)CC2)c1 [KUC103367N] | < 4.52 |
| COc1ccc(-c2noc(CCC(=O)N3CCN(c4ccccc4Br)CC3)n2)cc1 [KUC103370N] | < 4.52 |
| Cc1ccc(C)c(N2CCN(C(=O)CCc3nc(-c4cccc(C(F)(F)F)c4)no3)CC2)c1 [KUC103380N] | < 4.52 |
| COc1ccc(-c2noc(CCC(=O)N3CCN(c4ccc(F)cc4)CC3)n2)cc1 [KUC103398N] | < 4.52 |
| Cc1ccc(C)c(N2CCN(C(=O)CCc3nc(-c4ccccc4F)no3)CC2)c1 [KUC103401N] | < 4.52 |
| Cc1ccc(C)c(N2CCN(C(=O)CCc3nc(-c4ccc(N(C)C)cc4)no3)CC2)c1 [KUC103409N] | < 4.52 |
| COc1ccc(-c2noc(CCC(=O)N3CCC(c4cc(C)ccc4C)CC3)n2)cc1 [KUC103432N] | < 4.52 |
| COc1ccc(-c2ccc(CCC(=O)N3CCN(c4cc(C)ccc4C)CC3)o2)cc1 [KUC103447N] | < 4.52 |
| COc1ccccc1-c1noc(CCC(=O)N2CCN(c3cc(C)ccc3C)CC2)n1 [UNM-0000306071] | < 4.52 |
| COc1ccc(-c2noc(CCC(=O)N3CCN(c4ccccc4C(F)(F)F)CC3)n2)cc1 [UNM-0000306082] | < 4.52 |
| Cc1ccc(C)c(N2CCN(C(=O)CCc3nc(-c4ccc(Cl)cc4)no3)CC2)c1 [UNM-0000306083] | < 4.52 |
| Cc1ccc(C)c(N2CCN(C(=O)CCc3nc(-c4cccc(Cl)c4)no3)CC2)c1 [UNM-0000306086] | < 4.52 |
| COc1ccc(-c2noc(CCC(=O)N3CCN(c4ccc(Cl)cc4)CC3)n2)cc1 [UNM-0000306121] | < 4.52 |
| COc1ccc(-c2noc(CCC(=O)N3CCN(c4cccc(C)c4)CC3)n2)cc1 [UNM-0000306125] | < 4.52 |
| COc1ccc(-c2cccc(CCC(=O)N3CCN(c4cc(C)ccc4C)CC3)c2)cc1 [UNM-0000306127] | < 4.52 |
| COc1ccc(-c2cc(CCC(=O)N3CCN(c4cc(C)ccc4C)CC3)[nH]n2)cc1 [UNM-0000306150] | < 4.52 |

Same assay, conditions: inactive by the depositor's call

| Structure (SMILES) | pEC50 |
| --- | --- |
| COc1cccc(-c2noc(CCC(=O)N3CCN(c4cc(C)ccc4C)CC3)n2)c1 | 5.83 |
| COc1ccc(-c2noc(CCC(=O)N3CCN(c4cc(C)ccc4C)CC3)n2)cc1 [1-[4-(2,5-dimethylphenyl)-1-piperazinyl]-3-[3-(4-methoxyphenyl)-1,2,4-oxadiazol-5-yl]-1-propanone] | 5.77 |
| COc1ccc(-c2noc(CCC(=O)N3CCN(c4ccccc4Cl)CC3)n2)cc1 [1-[4-(2-chlorophenyl)piperazin-1-yl]-3-[3-(4-methoxyphenyl)-1,2,4-oxadiazol-5-yl]propan-1-one] | 5.73 |
| COc1ccc(-c2noc(CCC(=O)N3CCN(c4ccccc4F)CC3)n2)cc1 [1-[4-(2-fluorophenyl)piperazin-1-yl]-3-[3-(4-methoxyphenyl)-1,2,4-oxadiazol-5-yl]propan-1-one] | 7.30 |
| COc1ccc(-c2noc(CCC(=O)N3CCN(c4cccc(Br)c4)CC3)n2)cc1 [1-[4-(3-bromophenyl)-1-piperazinyl]-3-[3-(4-methoxyphenyl)-1,2,4-oxadiazol-5-yl]-1-propanone] | 7.77 |
| Cc1ccc(C)c(N2CCN(C(=O)CCc3nc(-c4ccccc4Br)no3)CC2)c1 [3-[3-(2-bromophenyl)-1,2,4-oxadiazol-5-yl]-1-[4-(2,5-dimethylphenyl)-1-piperazinyl]-1-propanone] | 7.48 |
| Cc1ccc(C)c(N2CCN(C(=O)CCc3nc(-c4ccccc4)no3)CC2)c1 [UNM-0000306070] | 6.06 |
| Cc1ccc(C)c(N2CCN(C(=O)CCc3nc(-c4ccc(Br)cc4)no3)CC2)c1 [UNM-0000306072] | 5.74 |
